Data published in the NIST ThermoML archive (doi:10.1021/je7002918).

Assay: xn = mol fraction of the nth substance listed
Conditions: 298.15 K, 101 kPa, Liquid

CC(C)(C)Cl [2-chloro-2-methylpropane] + Cc1ccc(C)cc1
Conditions | excess molar volume [m3/mol]
x1 = 0.0816 | -1.02e-07
x1 = 0.1212 | -1.48e-07
x1 = 0.1874 | -2.12e-07
x1 = 0.2585 | -2.68e-07
x1 = 0.308 | -3.04e-07
x1 = 0.3746 | -3.32e-07
x1 = 0.4539 | -3.56e-07
x1 = 0.5117 | -3.57e-07
x1 = 0.5918 | -3.44e-07
x1 = 0.6635 | -3.18e-07
x1 = 0.7516 | -2.62e-07
x1 = 0.8683 | -1.56e-07
x1 = 0.9321 | -8.2e-08

CC(C)(C)Cl [2-chloro-2-methylpropane] + Cc1cccc(C)c1
Conditions | excess molar volume [m3/mol]
x1 = 0.0875 | -8.4e-08
x1 = 0.1216 | -1.16e-07
x1 = 0.1973 | -1.76e-07
x1 = 0.2724 | -2.22e-07
x1 = 0.3516 | -2.58e-07
x1 = 0.4307 | -2.84e-07
x1 = 0.4832 | -2.9e-07
x1 = 0.5214 | -2.94e-07
x1 = 0.5768 | -2.86e-07
x1 = 0.658 | -2.66e-07
x1 = 0.7305 | -2.38e-07
x1 = 0.8543 | -1.52e-07
x1 = 0.9112 | -9.8e-08

CC(C)(C)Cl [2-chloro-2-methylpropane] + Cc1ccccc1
Conditions | excess molar volume [m3/mol]
x1 = 0.0932 | -1.14e-07
x1 = 0.1243 | -1.48e-07
x1 = 0.1832 | -2.11e-07
x1 = 0.2556 | -2.75e-07
x1 = 0.3342 | -3.28e-07
x1 = 0.3895 | -3.54e-07
x1 = 0.428 | -3.68e-07
x1 = 0.4952 | -3.81e-07
x1 = 0.5467 | -3.76e-07
x1 = 0.5985 | -3.64e-07
x1 = 0.6356 | -3.53e-07
x1 = 0.6889 | -3.2e-07
x1 = 0.8102 | -2.26e-07
x1 = 0.8961 | -1.3e-07
x1 = 0.9405 | -7.4e-08

CC(C)(C)Cl [2-chloro-2-methylpropane] + Cc1ccccc1C
Conditions | excess molar volume [m3/mol]
x1 = 0.0698 | -1.32e-07
x1 = 0.1023 | -1.86e-07
x1 = 0.1642 | -2.64e-07
x1 = 0.209 | -3.06e-07
x1 = 0.2653 | -3.54e-07
x1 = 0.3321 | -3.88e-07
x1 = 0.4187 | -4.22e-07
x1 = 0.4979 | -4.32e-07
x1 = 0.5984 | -4.28e-07
x1 = 0.6627 | -4.16e-07
x1 = 0.7452 | -3.72e-07
x1 = 0.8056 | -3.22e-07
x1 = 0.9113 | -1.88e-07
x1 = 0.9453 | -1.24e-07

CC(C)(C)Cl [2-chloro-2-methylpropane] + c1ccccc1
Conditions | excess molar volume [m3/mol]
x1 = 0.0821 | -9.4e-08
x1 = 0.1115 | -1.22e-07
x1 = 0.2016 | -1.8e-07
x1 = 0.2989 | -2.31e-07
x1 = 0.314 | -2.4e-07
x1 = 0.3587 | -2.46e-07
x1 = 0.3959 | -2.52e-07
x1 = 0.446 | -2.58e-07
x1 = 0.5551 | -2.45e-07
x1 = 0.6721 | -2.06e-07
x1 = 0.7422 | -1.74e-07
x1 = 0.828 | -1.28e-07
x1 = 0.914 | -6.6e-08

CCC(C)Cl (stereo unspecified) [2-chlorobutane] + Cc1ccc(C)cc1
Conditions | excess molar volume [m3/mol]
x1 = 0.0881 | -6.5e-08
x1 = 0.163 | -1.26e-07
x1 = 0.3481 | -2.26e-07
x1 = 0.4012 | -2.48e-07
x1 = 0.4742 | -2.54e-07
x1 = 0.5001 | -2.58e-07
x1 = 0.5534 | -2.52e-07
x1 = 0.6264 | -2.34e-07
x1 = 0.6784 | -2.06e-07
x1 = 0.738 | -1.75e-07
x1 = 0.7871 | -1.46e-07
x1 = 0.8758 | -8.6e-08
x1 = 0.9179 | -5.2e-08

CCC(C)Cl (stereo unspecified) [2-chlorobutane] + Cc1cccc(C)c1
Conditions | excess molar volume [m3/mol]
x1 = 0.0694 | -5.4e-08
x1 = 0.1004 | -7.8e-08
x1 = 0.139 | -9.4e-08
x1 = 0.2117 | -1.22e-07
x1 = 0.2712 | -1.43e-07
x1 = 0.3438 | -1.5e-07
x1 = 0.4061 | -1.56e-07
x1 = 0.4884 | -1.62e-07
x1 = 0.5442 | -1.62e-07
x1 = 0.601 | -1.56e-07
x1 = 0.7408 | -1.34e-07
x1 = 0.8431 | -1.06e-07
x1 = 0.9249 | -6.2e-08

CCC(C)Cl (stereo unspecified) [2-chlorobutane] + Cc1ccccc1
Conditions | excess molar volume [m3/mol]
x1 = 0.0856 | -6.6e-08
x1 = 0.1276 | -9.6e-08
x1 = 0.2495 | -1.73e-07
x1 = 0.3441 | -2.12e-07
x1 = 0.4723 | -2.32e-07
x1 = 0.5018 | -2.34e-07
x1 = 0.5569 | -2.32e-07
x1 = 0.6025 | -2.21e-07
x1 = 0.6712 | -2.06e-07
x1 = 0.7991 | -1.46e-07
x1 = 0.9046 | -7.2e-08
x1 = 0.9432 | -4.4e-08

CCC(C)Cl (stereo unspecified) [2-chlorobutane] + Cc1ccccc1C
Conditions | excess molar volume [m3/mol]
x1 = 0.0784 | -6.6e-08
x1 = 0.121 | -1.12e-07
x1 = 0.1509 | -1.34e-07
x1 = 0.166 | -1.47e-07
x1 = 0.2243 | -2.01e-07
x1 = 0.314 | -2.62e-07
x1 = 0.3921 | -2.92e-07
x1 = 0.4879 | -3.1e-07
x1 = 0.5552 | -2.95e-07
x1 = 0.669 | -2.46e-07
x1 = 0.7282 | -2.12e-07
x1 = 0.8091 | -1.42e-07
x1 = 0.8816 | -8.6e-08
x1 = 0.9052 | -6.4e-08

CCC(C)Cl (stereo unspecified) [2-chlorobutane] + c1ccccc1
Conditions | excess molar volume [m3/mol]
x1 = 0.0696 | 1e-09
x1 = 0.084 | 2e-09
x1 = 0.1122 | 1e-09
x1 = 0.1524 | 2e-09
x1 = 0.1983 | -2e-09
x1 = 0.2184 | -5e-09
x1 = 0.2744 | -5e-09
x1 = 0.3652 | -1.8e-08
x1 = 0.4665 | -2.6e-08
x1 = 0.5692 | -4.4e-08
x1 = 0.6062 | -4.8e-08
x1 = 0.752 | -5.4e-08
x1 = 0.8041 | -4.6e-08
x1 = 0.8573 | -4e-08
x1 = 0.9032 | -3.5e-08
x1 = 0.9405 | -2.5e-08
